Assay results reported in ChEMBL document CHEMBL6083220, “Chemically induced degradation of PRC2 complex by EZH2-Targeted PROTACs via a Ubiquitin-Proteasome pathway” (Bioorg Med Chem Lett, 2024).
The source made the active and inactive calls. The calls are words filed in the database; no cut-off is given here.

Key:
[1] = tested on: MINO; experiment: Downregulation of SUZ12 protein expression in human MINO cells at 5 uM incubated for 24 hrs by Western blotting assay; type: functional, cell-based
[2] = Apparent volume of distribution in ICR mouse at 2 mg/kg, iv; type: ADME, organism-based; conditions: in vivo, read-out: Vz
[3] = tested on: MINO; experiment: PROTAC activity at EZH2/E3 ligase in human MINO cells assessed as reduction in EZH2 protein level incubated for 24 hrs by Western blotting assay; type: cell-based; conditions: dose 0.02-20 µM
[4] = tested on: MINO; experiment: PROTAC activity at EZH2/E3 ligase in human MINO cells assessed as reduction in EZH2 protein level at 5 uM incubated for 24 hrs by Western blotting assay; type: cell-based; design: scale not given: the % may be the effect or the level left
[5] = tested on: MINO; experiment: Downregulation of EZH2 protein expression in human MINO cells at 5 uM incubated for 24 hrs by Western blotting assay; type: functional, cell-based
[6] = MRT(0 to t) in ICR mouse at 10 mg/kg, po; type: ADME, organism-based; conditions: in vivo
[7] = MRT(0 to t) in ICR mouse at 2 mg/kg, iv; type: ADME, organism-based; conditions: in vivo
[8] = Induction of cell cycle arrest in human MINO cells assessed as G2/M phase cells at 5 uM incubated for 24 hrs by propidium iodide staining based flow cytometry assay (reference value: 7.26%); type: functional
[9] = tested on: MINO; experiment: Binding affinity to RbAp48 in human MINO cells assessed as increase in thermal stability at 5 uM at 5 to 10 degreeC incubated for 24 hrs by CETSA; type: cell-based
[10] = tested on: MINO; experiment: Downregulation of H3k27me3 protein expression in human MINO cells at 5 uM incubated for 24 hrs by Western blotting assay; type: functional, cell-based
[11] = Cmax in ICR mouse at 2 mg/kg, iv; type: ADME, organism-based; conditions: in vivo
[12] = AUC(0 to infinity) in ICR mouse at 10 mg/kg, po; type: ADME, organism-based; conditions: in vivo
[13] = tested on: MINO; experiment: Induction of mitochondrial apoptosis pathway in human MINO cells assessed as upregulation of bax protein expression at 5 uM incubated for 24 hrs by Western blotting assay; type: functional, cell-based
[14] = Tmax in ICR mouse at 10 mg/kg, po; type: ADME, organism-based; conditions: in vivo
[15] = Induction of cell cycle arrest in human MINO cells assessed as G0/G1 phase cells at 5 uM incubated for 24 hrs by propidium iodide staining based flow cytometry assay (reference value: 67.56%); type: functional
[16] = MRT(0 to infinity) in ICR mouse at 10 mg/kg, po; type: ADME, organism-based; conditions: in vivo
[17] = tested on: OCI-Ly7; experiment: Antiproliferative activity against human OCILY7 cells by MTT assay; type: functional, cell-based
[18] = AUC(0 to t) in ICR mouse at 2 mg/kg, iv; type: ADME, organism-based; conditions: in vivo
[19] = Induction of apoptosis in human MINO cells assessed as late apoptotic cells at 5 uM incubated for 24 hrs by Annexin V-FITC/PI staining based flow cytometry assay (reference value: 8.29%); type: functional
[20] = Cmax in ICR mouse at 10 mg/kg, po; type: ADME, organism-based; conditions: in vivo
[21] = tested on: MINO; experiment: Downregulation of RbAp48 protein expression in human MINO cells at 5 uM incubated for 24 hrs by Western blotting assay; type: functional, cell-based
[22] = Induction of apoptosis in human MINO cells assessed as necrotic cells at 5 uM incubated for 24 hrs by Annexin V-FITC/PI staining based flow cytometry assay (reference value: 0.74%); type: functional
[23] = AUC(0 to t) in ICR mouse at 10 mg/kg, po; type: ADME, organism-based; conditions: in vivo
[24] = molecular target: Histone-lysine N-methyltransferase EZH2 (Homo sapiens) (UniProt Q15910); experiment: Binding affinity to EZH2 in human MINO cells assessed as increase in thermal stability at 5 uM at 5 to 10 degreeC incubated for 24 hrs by CETSA; type: cell-based
Histone-lysine N-methyltransferase EZH2 (Homo sapiens), sequence (Q15910 whole entry, looked up): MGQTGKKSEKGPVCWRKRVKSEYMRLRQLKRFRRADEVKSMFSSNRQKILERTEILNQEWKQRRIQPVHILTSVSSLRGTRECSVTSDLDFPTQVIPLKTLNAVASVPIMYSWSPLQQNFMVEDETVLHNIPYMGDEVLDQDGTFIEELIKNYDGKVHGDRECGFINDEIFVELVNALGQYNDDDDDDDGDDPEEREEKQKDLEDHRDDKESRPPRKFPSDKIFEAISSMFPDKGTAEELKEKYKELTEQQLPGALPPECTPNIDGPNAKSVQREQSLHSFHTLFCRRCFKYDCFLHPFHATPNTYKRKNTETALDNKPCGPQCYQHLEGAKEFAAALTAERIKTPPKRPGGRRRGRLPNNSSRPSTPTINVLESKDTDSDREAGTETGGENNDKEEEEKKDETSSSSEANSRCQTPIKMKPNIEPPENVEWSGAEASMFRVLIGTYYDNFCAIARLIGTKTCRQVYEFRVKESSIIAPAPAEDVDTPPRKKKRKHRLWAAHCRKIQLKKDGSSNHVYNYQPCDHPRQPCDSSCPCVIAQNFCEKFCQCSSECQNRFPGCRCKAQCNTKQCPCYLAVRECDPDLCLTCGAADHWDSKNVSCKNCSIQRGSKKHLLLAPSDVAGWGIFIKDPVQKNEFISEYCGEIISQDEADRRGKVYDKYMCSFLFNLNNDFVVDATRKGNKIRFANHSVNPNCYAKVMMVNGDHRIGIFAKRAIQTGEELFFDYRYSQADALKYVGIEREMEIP

[25] = Induction of apoptosis in human MINO cells assessed as viable cells at 5 uM incubated for 24 hrs by Annexin V-FITC/PI staining based flow cytometry assay (reference value: 89.93%); type: functional; conditions: read-out: Activity
[26] = tested on: MINO; experiment: PROTAC activity at EZH2/E3 ligase in human MINO cells assessed as reduction in EZH2 protein level at 1 to 2.5 uM incubated for 24 hrs by Western blotting assay; type: cell-based; conditions: dose 1-2.5 µM
[27] = molecular target: Polycomb protein SUZ12 (Homo sapiens) (UniProt Q15022); experiment: Binding affinity to SUZ12 in human MINO cells assessed as increase in thermal stability at 5 uM at 5 to 10 degreeC incubated for 24 hrs by CETSA; type: cell-based
Polycomb protein SUZ12 (Homo sapiens), sequence (Q15022 whole entry): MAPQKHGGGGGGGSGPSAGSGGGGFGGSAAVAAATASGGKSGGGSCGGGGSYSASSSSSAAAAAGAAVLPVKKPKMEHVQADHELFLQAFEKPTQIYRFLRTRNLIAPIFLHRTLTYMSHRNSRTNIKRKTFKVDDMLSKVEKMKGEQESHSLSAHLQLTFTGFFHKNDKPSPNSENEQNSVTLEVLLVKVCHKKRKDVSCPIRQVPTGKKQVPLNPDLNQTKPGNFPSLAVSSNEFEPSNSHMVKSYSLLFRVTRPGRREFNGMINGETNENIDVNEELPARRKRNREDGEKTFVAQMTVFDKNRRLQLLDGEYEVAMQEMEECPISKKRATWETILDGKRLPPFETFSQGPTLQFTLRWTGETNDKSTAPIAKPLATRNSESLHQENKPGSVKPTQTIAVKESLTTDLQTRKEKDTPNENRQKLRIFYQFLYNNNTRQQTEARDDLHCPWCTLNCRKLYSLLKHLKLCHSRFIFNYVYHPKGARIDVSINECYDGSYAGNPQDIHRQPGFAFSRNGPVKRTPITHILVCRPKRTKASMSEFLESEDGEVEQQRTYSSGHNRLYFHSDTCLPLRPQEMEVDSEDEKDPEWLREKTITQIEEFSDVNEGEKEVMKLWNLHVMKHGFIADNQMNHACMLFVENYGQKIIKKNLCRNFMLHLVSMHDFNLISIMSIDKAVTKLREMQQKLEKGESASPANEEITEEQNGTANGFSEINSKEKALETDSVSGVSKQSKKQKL

[28] = Initial plasma concentration in ICR mouse at 2 mg/kg, iv; type: ADME, organism-based
[29] = Antiproliferative activity against human MINO cells by MTT assay; type: functional, cell-based
[30] = tested on: MINO; experiment: Induction of mitochondrial apoptosis pathway in human MINO cells assessed as downregulation of bcl-2 expression at 5 uM incubated for 24 hrs by Western blotting assay; type: functional, cell-based
[31] = tested on: MINO; experiment: Induction of mitochondrial apoptosis pathway in human MINO cells assessed as upregulation of cleaved PARP expression at 5 uM incubated for 24 hrs by Western blotting assay; type: functional, cell-based
[32] = tested on: MINO; experiment: Induction of mitochondrial apoptosis pathway in human MINO cells assessed as downregulation of procaspase-3 expression at 5 uM incubated for 24 hrs by Western blotting assay; type: functional, cell-based
[33] = MRT(0 to infinity) in ICR mouse at 2 mg/kg, iv; type: ADME, organism-based; conditions: in vivo
[34] = Volume of distribution at steady state in ICR mouse at 2 mg/kg, iv; type: ADME, organism-based; conditions: in vivo, read-out: Vdss
[35] = Bioavailability in ICR mouse at 2 mg/kg, iv; type: ADME, organism-based; conditions: in vivo
[36] = tested on: MINO; experiment: Induction of mitochondrial apoptosis pathway in human MINO cells assessed as upregulation of cytochrome C expression at 5 uM incubated for 24 hrs by Western blotting assay; type: functional, cell-based
[37] = Clearance in ICR mouse at 2 mg/kg, iv; type: ADME, organism-based; conditions: in vivo
[38] = Half-life in ICR mouse at 2 mg/kg, iv; type: ADME, organism-based; conditions: in vivo
[39] = molecular target: Polycomb protein EED (Homo sapiens) (UniProt O75530); experiment: Binding affinity to EED in human MINO cells assessed as increase in thermal stability at 5 uM at 5 to 10 degreeC incubated for 24 hrs by CETSA; type: cell-based
Polycomb protein EED (Homo sapiens), sequence (O75530 2-441 limits assumed): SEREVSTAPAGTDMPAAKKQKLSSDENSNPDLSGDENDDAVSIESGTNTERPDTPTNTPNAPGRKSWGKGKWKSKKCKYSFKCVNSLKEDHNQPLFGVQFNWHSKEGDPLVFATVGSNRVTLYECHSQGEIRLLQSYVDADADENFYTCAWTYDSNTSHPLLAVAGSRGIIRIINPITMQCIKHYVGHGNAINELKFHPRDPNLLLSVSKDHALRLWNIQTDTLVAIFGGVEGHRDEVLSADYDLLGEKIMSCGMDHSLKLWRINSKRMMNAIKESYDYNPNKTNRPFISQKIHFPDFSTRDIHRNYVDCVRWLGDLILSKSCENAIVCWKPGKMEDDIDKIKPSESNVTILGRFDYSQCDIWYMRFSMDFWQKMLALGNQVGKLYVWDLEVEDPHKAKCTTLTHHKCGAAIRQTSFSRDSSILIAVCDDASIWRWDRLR

[40] = Tmax in ICR mouse at 2 mg/kg, iv; type: ADME, organism-based; conditions: in vivo
[41] = tested on: MINO; experiment: Induction of mitochondrial apoptosis pathway in human MINO cells assessed as downregulation of procaspase-9 expression at 5 uM incubated for 24 hrs by Western blotting assay; type: functional, cell-based
[42] = Half-life in ICR mouse at 10 mg/kg, po; type: ADME, organism-based; conditions: in vivo
[43] = Potency index, ratio of tazemetostat IC50 to test compound IC50 for antiproliferative activity against human MINO cells; type: functional
[44] = AUC(0 to infinity) in ICR mouse at 2 mg/kg, iv; type: ADME, organism-based; conditions: in vivo
[45] = Induction of cell cycle arrest in human MINO cells assessed as S phase cells at 5 uM incubated for 24 hrs by propidium iodide staining based flow cytometry assay (reference value: 25.19%); type: functional
[46] = Induction of apoptosis in human MINO cells assessed as early apoptotic cells at 5 uM incubated for 24 hrs by Annexin V-FITC/PI staining based flow cytometry assay (reference value: 1.04%); type: functional
[47] = tested on: MINO; experiment: Downregulation of EED protein expression in human MINO cells at 5 uM incubated for 24 hrs by Western blotting assay; type: functional, cell-based

## CCN(c1cc(-c2ccc(CN3CCN(C(=O)CC4CCC(CNc5cccc6c5C(=O)N(C5CCC(=O)NC5=O)C6=O)CC4)CC3)cc2)cc(C(=O)NCc2c(C)cc(C)[nH]c2=O)c1C)C1CCOCC1 (configuration not stated)
[1]
  Activity: Active
[2]
  Vd: 0.329 L/kg
[3]
  Activity: Dose-dependent-effect
[4]
  Activity: 100%
[5]
  Activity: Active
[6]
  MRT last: 8.87 h
[7]
  MRT last: 9.7 h
[8]
  Activity: 6.11%
[9]
  Activity: inactive
[10]
  Activity: Active
[11]
  Cmax: 7210 ng/mL
[12]
  AUC(0-inf): 40500 ng·h/mL
[13]
  Activity: Active
[14]
  Tmax: 0.83 h
[15]
  Activity: 79.47%
[16]
  MRT inf: 17.6 h
[17]
  IC50: 150 nM
[18]
  AUC(0-t): 98400 ng·h/mL
[19]
  Activity: 57.55%
[20]
  Cmax: 2980 ng/mL
[21]
  Activity: Active
[22]
  Activity: 2%
[23]
  AUC(0-t): 29700 ng·h/mL
[24]
  Activity: Active
[25]
  viability at 5 µM: 35.6%
[26]
  Activity: Active; Significant And Potent Activity Observed
[27]
  Activity: inactive
[28]
  C0: 6500 ng/mL
[29]
  IC50: 5 nM
[30]
  Activity: Active
[31]
  Activity: Active
[32]
  Activity: Active
[33]
  MRT inf: 31.4 h
[34]
  Vd: 0.323 L/kg
[35]
  bioavailability: 6.05%
[36]
  Activity: Active
[37]
  clearance: 0.191 mL/min/kg
[38]
  half-life: 21.9 h
[39]
  Activity: inactive
[40]
  Tmax: 0.42 h
[41]
  Activity: Active
[42]
  half-life: 11.7 h
[43]
  Ratio IC50: 214
[44]
  AUC(0-inf): 190000 ng·h/mL
[45]
  Activity: 14.41%
[46]
  Activity: 4.89%
[47]
  Activity: Active
